Results reported in publication PMC12711018, “Structural flexibility of the nicotinamide group of NADH in butanol dehydrogenase YqdH from Fusobacterium nucleatum” (PLOS One, 2025).

Target: T1, FnYqdH (butanol dehydrogenase YqdH) (Fusobacterium nucleatum, UniProt Q8R612)
T1 construct: gene FN1415; recombinant from pPRO-EX-HTA in E. coli BL21 (DE3); His6 tag removed with TEV protease
T1 sequence (Q8R612 1-385): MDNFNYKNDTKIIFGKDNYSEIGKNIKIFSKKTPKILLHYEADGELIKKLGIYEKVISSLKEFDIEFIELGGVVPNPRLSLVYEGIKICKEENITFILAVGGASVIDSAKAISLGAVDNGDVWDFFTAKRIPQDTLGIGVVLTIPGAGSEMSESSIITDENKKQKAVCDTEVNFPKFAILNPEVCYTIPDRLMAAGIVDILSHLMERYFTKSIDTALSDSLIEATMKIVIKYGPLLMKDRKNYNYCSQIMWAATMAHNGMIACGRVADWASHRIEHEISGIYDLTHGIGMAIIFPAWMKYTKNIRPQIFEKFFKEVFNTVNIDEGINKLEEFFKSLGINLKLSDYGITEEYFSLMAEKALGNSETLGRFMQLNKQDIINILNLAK
Experiment: X-ray crystallography, crystal soaked with NADH ([…] A)
Format: binding
Conditions: soak 1 min in 10 mM NADH, 2 mM Co2+, 25% glycerol; crystals grown in 0.1 M HEPES pH 7.5, 1.8 M ammonium phosphate; only the ADP part is seen and modelled as ADP, nicotinamide part disordered

NC(=O)C1=CN([C@@H]2O[C@H](COP(=O)(O)OP(=O)(O)OC[C@H]3O[C@@H](n4cnc5c(N)ncnc54)[C@H](O)[C@@H]3O)[C@@H](O)[C@H]2O)C=CC1 [NADH]
X-ray crystallography, crystal soaked with NADH (2.70 A): presence of the adenine and diphosphate groups of the NADH molecule
